Experimental data: the NIST ThermoML archive (doi:10.1021/je3013342)

Assays:
[1] = 101 kPa, Liquid, Vibrating tube method
[2] = xn = mol fraction of the nth substance listed; conditions: 101 kPa, Liquid, Vibrating tube method

CCCCCCl [1-chloropentane]
[1]
Conditions | mass density [kg/m3]
298.15 K | 877.09
308.15 K | 866.97
318.15 K | 856.73

CCCCCCl [1-chloropentane] + C[N+](=O)[O-]
mass density [kg/m3], [2]
Conditions | x1 = 0.1043 | x1 = 0.1721 | x1 = 0.2575 | x1 = 0.3466 | x1 = 0.4525 | x1 = 0.5435 | x1 = 0.6864 | x1 = 0.8325 | x1 = 0.8859 | x1 = 1
298.15 K | 1075.06 | 1045.39 | 1014.58 | 987.6 | 960.73 | 941.21 | 916.34 | 895.75 | 889.18 | 877.09
308.15 K | 1062.09 | 1032.77 | 1002.33 | 975.7 | 949.19 | 929.96 | 905.49 | 885.27 | 878.82 | 866.97
318.15 K | 1048.99 | 1020.02 | 989.95 | 963.67 | 937.53 | 918.59 | 894.51 | 874.65 | 868.33 | 856.73

C[N+](=O)[O-] [nitromethane]
[1]
Conditions | mass density
298.15 K | 1130.9 kg/m3 [middle of 5 runs]
308.15 K | 1117.28 kg/m3 [middle of 6 runs]
318.15 K | 1103.53 kg/m3 [middle of 6 runs]

C[N+](=O)[O-] [nitromethane] + CC(Cl)(Cl)Cl
[2], x2 = 0
Conditions | mass density [kg/m3]
298.15 K | 1130.91
308.15 K | 1117.29
318.15 K | 1103.55

C[N+](=O)[O-] [nitromethane] + CCCCCCl
[2], x2 = 0
Conditions | mass density [kg/m3]
298.15 K | 1130.86
308.15 K | 1117.23
318.15 K | 1103.48

C[N+](=O)[O-] [nitromethane] + CCCCCl
mass density [kg/m3], [2]
Conditions | x2 = 0 | x2 = 0.1107 | x2 = 0.2174 | x2 = 0.3236 | x2 = 0.3932 | x2 = 0.4856 | x2 = 0.5569 | x2 = 0.6626 | x2 = 0.7722 | x2 = 0.8646
298.15 K | 1130.76 | 1080.18 | 1040.11 | 1007.02 | 987.92 | 965.38 | 949.92 | 929.96 | 911.75 | 898.07
308.15 K | 1117.14 | 1067 | 1027.27 | 994.47 | 975.54 | 953.21 | 937.92 | 918.09 | 900.15 | 886.65
318.15 K | 1103.39 | 1053.7 | 1014.29 | 982.09 | 963.01 | 940.87 | 925.76 | 906.2 | 888.4 | 875.07

C[N+](=O)[O-] [nitromethane] + ClC(Cl)C(Cl)Cl
[2], x2 = 0
Conditions | mass density [kg/m3]
298.15 K | 1130.86
308.15 K | 1117.24
318.15 K | 1103.5

C[N+](=O)[O-] [nitromethane] + ClC(Cl)Cl
mass density [kg/m3], [2]
Conditions | x2 = 0 | x2 = 0.1197 | x2 = 0.1772 | x2 = 0.3007 | x2 = 0.4009 | x2 = 0.5 | x2 = 0.5978 | x2 = 0.7194 | x2 = 0.8607 | x2 = 0.9562
298.15 K | 1130.86 | 1189.05 | 1214.82 | 1265.96 | 1303.55 | 1337.74 | 1368.78 | 1404.19 | 1441.14 | 1463.58
308.15 K | 1117.24 | 1174.6 | 1200 | 1250.36 | 1287.37 | 1321 | 1351.55 | 1386.34 | 1422.65 | 1444.71
318.15 K | 1103.5 | 1160.01 | 1185.02 | 1234.59 | 1271 | 1304.11 | 1334.09 | 1368.25 | 1403.89 | 1425.56

C[N+](=O)[O-] [nitromethane] + ClCCCCCl
[2], x2 = 0
Conditions | mass density [kg/m3]
298.15 K | 1130.95
308.15 K | 1117.32
318.15 K | 1103.57

C[N+](=O)[O-] [nitromethane] + ClCCCCl
[2], x2 = 0
Conditions | mass density [kg/m3]
298.15 K | 1130.9
308.15 K | 1117.28
318.15 K | 1103.53

C[N+](=O)[O-] [nitromethane] + ClCCCl
mass density [kg/m3], [2]
Conditions | x2 = 0 | x2 = 0.1132 | x2 = 0.2235 | x2 = 0.3249 | x2 = 0.4672 | x2 = 0.5586 | x2 = 0.6264 | x2 = 0.7349 | x2 = 0.857 | x2 = 0.923
298.15 K | 1130.86 | 1147.31 | 1162.54 | 1175.69 | 1192.94 | 1203.25 | 1210.49 | 1221.8 | 1233.37 | 1239.2
308.15 K | 1117.24 | 1133.59 | 1148.71 | 1161.77 | 1178.89 | 1189.11 | 1196.29 | 1207.48 | 1218.91 | 1224.67
318.15 K | 1103.5 | 1119.73 | 1134.75 | 1147.71 | 1164.69 | 1174.81 | 1181.96 | 1192.99 | 1204.28 | 1209.97

ClC(Cl)Cl [trichloromethane]
[1]
Conditions | mass density [kg/m3]
298.15 K | 1473.42
308.15 K | 1454.33
318.15 K | 1434.98

ClC(Cl)Cl [trichloromethane] + C[N+](=O)[O-]
[2], x1 = 1
Conditions | mass density [kg/m3]
298.15 K | 1473.42
308.15 K | 1454.33
318.15 K | 1434.98
